What follows are compounds tested against T1, sodium-proton exchanger of subtype 3 (NHE3) (Homo sapiens, UniProt P48764) (assay: Recovery of intracellular pH (pHi) after acidification in LAP1 cells stably expressing NHE3 (BCECF fluorescence, FLIPR)). Details: Activity range (inhibitory effect on NHE3), LAP1 cells stably expressing NHE3; pH recovery after acidification; range 1 is % inhibition at 10 μM.
T1 construct: expressed in transfected cells
T1 sequence (P48764 26-834): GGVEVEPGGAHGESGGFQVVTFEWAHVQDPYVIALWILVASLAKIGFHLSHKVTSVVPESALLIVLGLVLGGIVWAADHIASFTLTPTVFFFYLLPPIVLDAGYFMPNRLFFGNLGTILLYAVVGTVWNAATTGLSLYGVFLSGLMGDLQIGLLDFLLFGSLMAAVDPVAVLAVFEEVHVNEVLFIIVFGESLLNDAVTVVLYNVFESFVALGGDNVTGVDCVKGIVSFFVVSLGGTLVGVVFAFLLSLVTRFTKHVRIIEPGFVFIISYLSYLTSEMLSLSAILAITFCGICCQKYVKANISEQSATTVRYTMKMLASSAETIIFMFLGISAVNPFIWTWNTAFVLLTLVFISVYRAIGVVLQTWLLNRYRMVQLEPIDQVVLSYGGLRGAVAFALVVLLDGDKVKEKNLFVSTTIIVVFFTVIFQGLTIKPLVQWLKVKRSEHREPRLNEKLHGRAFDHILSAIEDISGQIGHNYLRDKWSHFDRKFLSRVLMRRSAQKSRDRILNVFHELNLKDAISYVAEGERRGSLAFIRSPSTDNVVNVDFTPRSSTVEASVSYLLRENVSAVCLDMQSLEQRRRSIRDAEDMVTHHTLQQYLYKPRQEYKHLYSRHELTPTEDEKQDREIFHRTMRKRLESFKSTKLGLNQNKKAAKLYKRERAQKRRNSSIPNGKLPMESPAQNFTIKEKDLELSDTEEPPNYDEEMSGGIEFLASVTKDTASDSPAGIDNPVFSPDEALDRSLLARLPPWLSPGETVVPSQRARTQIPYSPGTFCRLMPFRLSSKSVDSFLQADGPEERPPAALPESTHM
Assay type: cell-based

SMILES	IC50
N#Cc1ccc(O[C@H]2c3ccccc3C[C@@H]2N2CCCC2)cc1Cl (racemic) [Example 392, 2-chloro-4-(rac-trans-(1,2)-2-pyrrolidin-1-ylindan-1-yloxy)benzonitrile]	1000 to 10000 nM

Same assay, conditions: LAP1 cells stably expressing NHE3; pH recovery after acidification; range 1 is % inhibition at 10 μM; read-out: Activity range (inhibitory effect on NHE3)

SMILES	inhibition at 10 µM	IC50
CS(=O)(=O)c1ccc(O[C@H]2c3cc(Cl)cc(Cl)c3C[C@@H]2N2CCC(F)(F)CC2)cc1 [Example 250, 1-[(1S,2S)-4,6-dichloro-1-(4-methanesulfonylphenoxy)indan-2-yl]-4,4-difluoropiperidine]	20 to 50%	–
CN(CCO)[C@H]1Cc2c(Cl)cc(Cl)cc2[C@@H]1Oc1ccc(S(C)(=O)=O)cc1 [Example 702, 2-{[trans-(1S,2S)-4,6-Dichloro-1-(4-methanesulfonyl-phenoxy)-indan-2-yl]-methyl-amino}-ethanol]	–	< 1000 nM
CCCC1(N)CCCN([C@H]2Cc3c(Cl)cc(Cl)cc3[C@@H]2Oc2ccc(S(C)(=O)=O)cc2)C1 (stereo partly drawn) [Example 299, 1-[trans-(1S,2S)-4,6-dichloro-1-(4-methanesulfonylphenoxy)indan-2-yl]-3-propylpiperidin-3-ylamine]	–	< 1000 nM
CS(=O)(=O)c1ccc(O[C@H]2c3cc(Cl)cc(Cl)c3C[C@@H]2N2CC3C[C@H]2CN3)cc1 [Example 209, (S)-2-[trans-(1S,2S)-4,6-dichloro-1-(4-methanesulfonylphenoxy)indan-2-yl]-2,5-diazabicyclo[2.2.1]heptane]	–	< 1000 nM
CC(=O)Nc1cccc(O[C@H]2c3cc(Cl)cc(Cl)c3C[C@@H]2N2CCCC2)c1 (racemic) [Example 648, N-[3-(rac-trans-(1,2)-4,6-dichloro-2-pyrrolidin-1-ylindan-1-yloxy)phenyl]acetamide]	–	1000 to 10000 nM
COc1cc(Cl)cc(O[C@@H]2c3ccccc3C[C@H]2N2CCC(CN)C2)c1 (mixture of isomers) [Example 613, C-{1-[rac-trans-(1,2)-1-(3-chloro-5-methoxyphenoxy)indan-2-yl]pyrrolidin-3-yl}methylamine]	–	1000 to 10000 nM
Cc1nnc(C)n1-c1ccc(O[C@H]2c3cc(Cl)ccc3C[C@@H]2N2CC[C@@H](F)C2)c(F)c1 [Example 563, 4-{4-[trans-(1S,2S)-6-chloro-2-((R)-3-fluoropyrrolidin-1-yl)indan-1-yloxy]-3-fluorophenyl}-3,5-dimethyl-4H-[1,2,4]triazole]	–	< 1000 nM
CS(=O)(=O)c1ccc(O[C@H]2c3cc(Cl)cc(Cl)c3C[C@@H]2N2CC[C@H](O)C2)cc1 [Example 198, (S)-1-[trans-(1S,2S)-4,6-dichloro-1-(4-methanesulfonylphenoxy)indan-2-yl]pyrrolidin-3-ol]	–	< 1000 nM
NC1CCN([C@@H]2Cc3ccccc3[C@H]2Oc2ccnc3ccccc23)C1 (mixture of isomers) [Example 275, 1-[rac-trans-(1,2)-1-(quinolin-4-yloxy)indan-2-yl]pyrrolidin-3-ylamine]	–	1000 to 10000 nM
CS(=O)(=O)c1ccc(O[C@H]2c3cc(Cl)cc(Cl)c3C[C@@H]2N2CC[C@@H](NCCF)C2)cc1 [Example 226, {(R)-1-[trans-(1S,2S)-4,6-dichloro-1-(4-methanesulfonylphenoxy)indan-2-yl]pyrrolidin-3-yl}-(2-fluoroethyl)amine]	–	< 1000 nM
Cc1cccc(Cl)c1O[C@H]1c2ccccc2CC[C@@H]1N1CCC[C@@H](N)C1 (racemic) [Example 39, (R)-1-[rac-trans-(1,2)-1-(2-chloro-6-methylphenoxy)-1,2,3,4-tetrahydronaphthalen-2-yl]piperidin-3-ylamine]	20 to 50%	–
CS(=O)(=O)c1ccc(O[C@H]2c3cc(Cl)cc(Cl)c3C[C@@H]2CN2CCCC2)cc1 (racemic) [Example 280, trans-4,6-dichloro-1-(4-methylsulfonyl-phenyloxy)-2-pyrrolidinylmethylindane]	–	1000 to 10000 nM
CC1(C)OC(=O)N(c2ccc(Cl)c(O[C@H]3c4cc(Cl)cc(Cl)c4C[C@@H]3N3CC[C@@H](O)C3)c2)C1=O [Example 432, 3-{4-chloro-3-[(1S,2S)-4,6-dichloro-2-((R)-3-hydroxypyrrolidin-1-yl)indan-1-yloxy]phenyl}-5,5-dimethyloxazolidine-2,4-dione]	–	1000 to 10000 nM
N[C@@H]1CCCN([C@@H]2Cc3ccccc3[C@H]2Oc2ccnc3ccccc23)C1 (racemic) [Example 88, (R)-1-[rac-trans-(1,2)-1-(quinolin-4-yloxy)indan-2-yl]piperidin-3-ylamine]	–	1000 to 10000 nM
NS(=O)(=O)c1ccc(O[C@H]2c3cc(Cl)cc(Cl)c3C[C@@H]2NC2CCCC2)c(F)c1 [Example 748, 4-(trans-(1S,2S)-4,6-Dichloro-2-cyclopentylamino-indan-1-yloxy)-3-fluoro-benzenesulfonamide]	–	1000 to 10000 nM
NCCc1c[nH]c2ccc(O[C@H]3c4ccccc4CC[C@@H]3N3CCC[C@H](N)C3)cc12 (racemic) [Example 201, (S)-1-{rac-trans-(1,2)-1-[3-(2-aminoethyl)-1H-indol-5-yloxy]-1,2,3,4-tetrahydronaphthalen-2-yl}piperidin-3-ylamine]	–	1000 to 10000 nM
NC(=O)c1cccc(O[C@H]2c3ccccc3CC[C@@H]2N2CCC[C@H](N)C2)c1 (racemic) [Example 412, 3-[rac-trans-(1,2)-2-((S)-3-aminopiperidin-1-yl)-1,2,3,4-tetrahydronaphthalen-1-yloxy]benzamide]	20 to 50%	–
Cc1nnc(C)n1-c1ccc(O[C@H]2c3c(Cl)sc(Cl)c3CC[C@@H]2N2CCCC2)c(F)c1 (racemic) [Example 495, 4-[4-((4S,5S)-1,3-dichloro-5-pyrrolidin-1-yl-4,5,6,7-tetrahydrobenzo[c]thiophen-4-yloxy)-3-fluorophenyl]-3,5-dimethyl-4H-[1,2,4]triazole]	–	1000 to 10000 nM
Clc1cnccc1O[C@H]1c2ccccc2C[C@@H]1N1CCCC1 (racemic) [Example 441, 3-chloro-4-(2-pyrrolidin-1-ylindan-1-yloxy)pyridine]	–	1000 to 10000 nM

The next lines start with the values.

inhibition at 10 µM	IC50	SMILES
–	1000 to 10000 nM	CS(=O)(=O)c1ccc(O[C@@H]2c3ccccc3C[C@H]2NCC2CCC2)cc1 (racemic) [Example 717, Cyclobutylmethyl-[rac-trans-(1,2)-1-(4-methanesulfonyl-phenoxy)-indan-2-yl]-amine]
20 to 50%	–	N[C@@H]1CCCN([C@H]2CCc3ccccc3[C@@H]2Oc2ccc(N3CCNCC3)cc2)C1 (racemic) [Example 75, (R)-1-[rac-trans-(1,2)-1-(4-piperazin-1-ylphenoxy)-1,2,3,4-tetrahydronaphthalen-2-yl]piperidin-3-ylamine]
20 to 50%	–	CS(=O)(=O)c1ccc(O[C@H]2c3ccccc3CC[C@@H]2N2CCOCC2)cc1 (racemic) [Example 508, 4-[rac-trans-(1,2)-1-(4-methanesulfonylphenoxy)-1,2,3,4-tetrahydronaphthalen-2-yl]morpholine]
–	1000 to 10000 nM	N[C@@H]1CCCN([C@@H]2Cc3ccccc3[C@H]2Oc2ccc3c(c2)OCO3)C1 (racemic) [Example 83, (R)-1-[rac-trans-(1,2)-1-(benzo[1,3]dioxol-5-yloxy)indan-2-yl]piperidin-3-ylamine]
–	1000 to 10000 nM	CS(=O)(=O)c1ccc(O[C@H]2c3ccccc3C[C@@H]2CN2CCCC2)cc1 (racemic) [Example 274, 1-[rac-trans-(1,2)-1-(4-methanesulfonylphenoxy)indan-2-ylmethyl]pyrrolidine]
–	1000 to 10000 nM	CS(=O)(=O)c1ccc(N[C@H]2c3ccccc3C[C@@H]2N2CCCC2)cc1 [Example 707, (4-Methanesulfonyl-phenyl)-((1S,2S)-2-pyrrolidin-1-yl-indan-1-yl)-amine]
–	< 1000 nM	N[C@@H]1CCCN([C@@H]2Cc3ccccc3[C@H]2Oc2ccc(S(N)(=O)=O)c(Cl)c2Cl)C1 (racemic) [Example 518, 4-[rac-trans-(1,2)-2-((R)-3-aminopiperidin-1-yl)indan-1-yloxy]-2,3-dichlorobenzenesulfonamide]
–	< 1000 nM	NS(=O)(=O)c1ccc(O[C@H]2c3cc(Cl)cc(Cl)c3C[C@@H]2N2CC[C@@H](O)C2)cc1 [Example 743, 4-[trans-(1S,2S)-4,6-Dichloro-2-((R)-3-hydroxy-pyrrolidin-1-yl)-indan-1-yloxy]-benzenesulfonamide]
–	1000 to 10000 nM	NCC1CCN([C@@H]2Cc3ccccc3[C@H]2Oc2ccc(-n3cncn3)cc2)C1 (mixture of isomers) [Example 618, C-{1-[rac-trans-(1,2)-1-(4-[1,2,4]triazol-1-ylphenoxy)indan-2-yl]pyrrolidin-3-yl}methylamine]
–	1000 to 10000 nM	O=S1(=O)CCCN1c1cccc(O[C@H]2c3ccccc3C[C@@H]2N2CCCC2)c1 (racemic) [Example 363, 2-[3-(rac-trans-(1,2)-2-pyrrolidin-1-ylindan-1-yloxy)phenyl]isothiazolidine 1,1-dioxide]
–	< 1000 nM	NS(=O)(=O)c1ccc(OC2c3ccccc3CC2N2CCCC2)cc1 (racemic) [Example 466, 4-(rac-trans-(1,2)-2-pyrrolidin-1-ylindan-1-yloxy)benzenesulfonamide]

— patent publication US8822449B2, “Substituted aminoindanes and analogs thereof, and the pharmaceutical use thereof” (Sanofi, priority 2008, dated 2014)
